One block for each compound: values may come before it.
Legend:
[1] = test system: Salmonella typhimurium TA1535; format: cell-based
[2] = test system: Salmonella typhimurium TA100; format: cell-based
[3] = test system: Salmonella typhimurium TA1537; test: Salmonella/microsome reversion assay (Ames test), TA1537; format: cell-based
[4] = test system: Salmonella typhimurium TA102; details: Positive Control: 2-aminoanthrene 5 µg /plate
Experimental: Five strains of Salmonella typhimurium, TA98, TA102, TA100, TA1537, and TA1535, were obtained from Moltox (Boone, NC, USA). Mutagenicity was evaluated by the incorporation method in the presence or absence of S9 metabolic activation. A volume of 100 µL of each test bacterial culture (10^9 cells/mL), 2 mL soft agar (0.6% agar, 0.5% NaCl, 5 mM histidine, and […], pH 7.4, 40–50 °C), 0.5 mL S9 mixture (if necessary), and AzP were mixed well in a test tube. […] The revertant colonies were counted, and a positive mutagenic response was identified when (i) the number of revertants was at least double the spontaneous yield; (ii) a statistical significance (p ≤ 0.05) was found; and (iii) a reproducible positive dose response was present.

[5] = test system: Salmonella typhimurium TA98; test: Salmonella/microsome reversion assay (Ames test), TA98; format: cell-based; details: Positive Control: 4-Nitro-o-phenylenediamine 2.5 µg / plate
male ICR mice = test: Micronucleus test; details: Cyclophosphamide 200 mg/kg
Experimental: Male ICR mice (n = 5) were administered AzP orally by gavage, at doses of 5, 50, and 500 mg/kg body weight. […] At 24, 48, and 72 h after dosing, 2-μL blood samples were collected from the tail vein onto a slide stained with acridine orange (40 μg/mL). The ratio (%) of polychromatic erythrocytes (PCEs) to total erythrocytes was determined using fluorescence microscopy. In addition, the frequency of micronucleated polychromatic erythrocytes (MNPCEs; ‰) was counted to a total of 1000 erythrocytes or PCEs per animal.

[6] = test system: Chinese Hamster Ovary cells (CHO-K1); test: Chromosome aberration assay; format: cell-based; details: Mitomycin C 1µg/mL
Experimental: Chinese hamster ovary epithelial cells (CHO-K1, American Type Culture Collection, Manassas, VA, USA) were cultured in 6-cm dishes at a density of 2 × 10^5 cells/mL for chromosomal abnormality analysis. […] Colemid (0.1 μg/mL) was administered 3 h before trypsinization, followed by treatment with 0.9% sodium citrate at 37 °C and Carnoy’s solution (methanol:acetic acid, 3:1). The cells were stained with 3% Giemsa solution in 0.07 M phosphate buffer (pH 6.8) on glass slides. […] The data were expressed as the total mean number of chromosomal aberrations per treatment ± standard deviation (SD) from three independent experiments.

C57BL/6 mice = details: mouse, in vivo, ip, 11 mg/kg
IEC-6 cells = test: LPS-induced MAPK/Akt phosphorylation in IEC-6 cells (Western blot); format: cell-based, Rat; details: LPS 500 ng/mL, 10 min
Experimental: Figure 6 Western blotting of IEC-6 cells treated with LPS and/or AzP. (A) IEC-6 cells (1 × 10^6 cells/mL) were dispensed on 6 cm dishes and (A) treated with LPS (500 ng/mL) for 10, 20, 30, 60, and 90 min. Data expressed as means ± SD from 3 independent experiments. * p < 0.05 as compared with the resting. (B) Treatment with LPS (500 ng/mL) for 10 min as indicated. Cells were treated with the indicated concentrations of AzP (5, 10, and 20 μM) or vehicle for 30 min before treatment with LPS. Cell lysates were collected for Western blot targeting p-ERK phosphorylation (Thr202/Tyr204, B), MEK phosphorylation ([…], C), and Akt phosphorylation (Ser473, D). Data expressed as means ± SD from 3 independent experiments. ### p < 0.001 as compared with the resting, * p < 0.05, ** p < 0.01 and *** p < 0.001 as compared with the vehicle.
IEC-6 cells were incubated in different AzP concentrations with/without LPS stimulation for 24 h. The homogenate from cells or tissues was then centrifuged at 14,000× g for 10 min at 4 °C and the supernatant was collected. Protein separation was performed using 10% reducing SDS-PAGE, electrotransferred onto polyvinylidene difluoride (PVDF), and immunoblotted with antibodies against inflammatory proteins as well as β-actin as control. Densitometry was performed using BioLight software V2000.01 (Uhldingen-Mühlhofen, Germany). The optical density of specific protein was normalized to an internal control and expressed as a ratio to control.

[7] = Positive Control: 2-aminoanthrene 5 µg /plate
[8] = 3 hours without S9 metabolic activation
[9] = 24 hours without S9 metabolic activation
[10] = Positive Control: Sodium Azide 5 µg / plate

Compound: Nc1ccc2cc3ccccc3cc2c1 [2-aminoanthrene, reference compound]
Revertant colonies per plate (+S9) TA1535 [1, 7]: 1182.9±81.6
Revertant colonies per plate (+S9) TA100 [2, 7]: 1514.7±6.9
Revertant colonies per plate (+S9) TA1537 [3, 7]: 1282.8±109
Revertant colonies per plate (+S9) TA102 [4]: 1409.8±78.2

Compound: Nc1ccc([N+](=O)[O-])cc1N [4-Nitro-o-phenylenediamine, reference compound]
Revertant colonies per plate (-S9) TA98 [5]: 1549.3±37.6

Compound: Nc1c2ccccc2nc2ccccc12 [9-Aminoacridine, reference compound]
Revertant colonies per plate (-S9) TA1537 ([3]; Positive Control: 9-Aminoacridine 50 µg /plate): 1671.8±184

Compound: O=P1(N(CCCl)CCCl)NCCCO1 (stereo not drawn) [Cyclophosphamide, reference compound]
Reticuloctes(%) (male ICR mice; Day 1): 1.60±0.12 %
Reticuloctes(%) (male ICR mice; Day 2): 0.93±0.07 %
Reticuloctes(%) (male ICR mice; Day 3): 1.07±0.16 %

Aberrant cell (%) With gap [6, 8]: 7.67±1.15 %
Number of cells with structural aberrations (%) B: chromosome break [6, 8]: 0.00±0.00%
Number of cells with structural aberrations (%) G: chromosome gap [6, 8]: 0.00±0.00%
Number of cells with structural aberrations (%) e: exchange [6, 8]: 2.00±1.00 %
Aberrant cell (%) With gap [6, 9]: 10.00±1.73 %
Number of cells with structural aberrations (%) B: chromosome break [6, 9]: 0.00±0.00%
Number of cells with structural aberrations (%) G: chromosome gap [6, 9]: 0.00±0.00%
Number of cells with structural aberrations (%) e: exchange [6, 9]: 4.33±2.52 %
Compound: CO[C@@]12[C@H](COC(N)=O)C3=C(C(=O)C(C)=C(N)C3=O)N1C[C@@H]1N[C@@H]12 [Mitomycin C, reference compound]

Compound: [N-]=[N+]=[N-].[Na+] [Sodium Azide, reference compound]
Revertant colonies per plate (-S9) TA1535 [1, 10]: 1506.7±62.3
Revertant colonies per plate (-S9) TA100 [2, 10]: 1433.6±94.4

Compound: N.N.[Cl][Pt][Cl] [cisplatin, reference compound]
Relative mean body weight (day 0 = 100%) (C57BL/6 mice): 76.0 ± 4.7%

Compound: lipopolysaccharide [LPS, reference compound]
ERK phosphorylation compared to the control (IEC-6 cells): 1.8 ± 0.3 fold

Source: paper PMC6359543, “Efficacy of Azatyrosine-Phenylbutyric Hydroxamides, a Histone Deacetylase Inhibitor, on Chemotherapy-Induced Gastrointestinal Mucositis” (International Journal of Molecular Sciences, 2019)
